Laboratory results published in the NIST ThermoML archive (doi:10.1016/j.jct.2016.05.001).

Assay: molar heat capacity at constant pressure
Details: 101.33 kPa, Crystal, Small (less than 1 g) adiabatic calorimetry

Nc1nc2ncc(CNc3ccc(C(=O)N[C@@H](CCC(=O)O)C(=O)O)cc3)nc2c(=O)[nH]1.O.O [folic acid dihydrate]
Details	molar heat capacity at constant pressure [J/K/mol]
4 K	0.102
5 K	0.2491
6 K	0.5453
6.19 K	0.593
6.38 K	0.655
6.61 K	0.721
6.75 K	0.802
6.92 K	0.887
7 K	0.912
7.08 K	0.945
7.25 K	1.04
7.41 K	1.13
7.57 K	1.252
7.74 K	1.385
7.91 K	1.525
8 K	1.566
8.09 K	1.638
8.26 K	1.768
8.44 K	1.945
8.62 K	2.088
8.81 K	2.306
8.99 K	2.516
9 K	2.515
9.18 K	2.748
9.37 K	2.964
9.57 K	3.161
9.76 K	3.423
9.96 K	3.738
10 K	3.778
10.25 K	4.166
10.62 K	4.708
10.99 K	5.254
11.38 K	5.862
11.76 K	6.483
12.15 K	7.179
12.54 K	7.815
12.94 K	8.333
13.34 K	8.928
13.74 K	9.587
14.14 K	10.14
14.55 K	10.74
14.95 K	11.46
15 K	11.59
15.36 K	12.2
15.77 K	12.88
16.17 K	13.8
16.58 K	14.68
16.99 K	15.55
17.41 K	16.41
17.82 K	17.5
18.23 K	18.49
18.65 K	19.48
19.07 K	20.54
19.48 K	21.69
19.9 K	23.01
20 K	23.04
20.65 K	24.46
21.68 K	27.43
22.72 K	30.51
23.77 K	33.53
24.84 K	36.78
25 K	37.08
25.91 K	40.14
26.99 K	43.46
28.09 K	47.02
29.19 K	50.59
30 K	53.06
30.31 K	54.03
31.67 K	58.43
32.99 K	62.72
34.13 K	66.37
35 K	68.97
35.27 K	70.06
36.42 K	73.12
37.58 K	77.03
38.73 K	80.18
39.9 K	83.86
40 K	84.24
41.07 K	87.28
42.25 K	90.77
43.42 K	94.06
44.6 K	97.24
45 K	98.58
45.79 K	100.6
46.98 K	104.2
48.17 K	107.5
49.36 K	110.7
50 K	112.2
50.59 K	113.9
51.85 K	117.3
53.22 K	120.9
54.67 K	124.8
55.88 K	127.9
57.09 K	131
58.3 K	134.2
59.51 K	137.3
60 K	138.8
60.73 K	140.4
61.94 K	143.5
63.16 K	146.9
64.38 K	150.7
65.6 K	153.5
66.82 K	156.6
68.05 K	160.1
69.27 K	162.8
70 K	164.4
70.5 K	165.1
71.99 K	169.2
74 K	173.6
76.06 K	178.7
78.43 K	183
80 K	186.3
80.89 K	187.7
82.9 K	192.1
84.91 K	195.6
86.92 K	199
88.92 K	202.8
90 K	204.7
90.93 K	206.4
92.93 K	210.3
94.93 K	214
96.93 K	217.8
98.92 K	222.6
100 K	224.7
100.92 K	227
103.4 K	232.2
106.39 K	237.8
109.39 K	242.7
110 K	244.1
112.4 K	248.4
115.42 K	253.8
118.43 K	259.3
120 K	262
121.45 K	264.5
124.48 K	269.8
127.5 K	275.4
130 K	280.1
130.53 K	281.3
133.57 K	286.9
136.6 K	292.2
139.64 K	297.9
140 K	298.3
142.68 K	303.3
145.73 K	308.5
148.77 K	314.4
150 K	316.4
151.82 K	319.5
154.87 K	325
157.92 K	330.4
160 K	334.1
160.98 K	335.8
164.06 K	341.4
167.12 K	346.3
170 K	351.6
170.18 K	351.6
173.24 K	357.2
176.3 K	362.7
179.37 K	368.2
180 K	369
182.43 K	373.5
185.5 K	378.4
188.56 K	383.4
190 K	386.3
191.63 K	389.3
194.69 K	394.9
197.76 K	400.1
200 K	403.7
200.82 K	404.6
203.89 K	410.4
207.45 K	417
210 K	421.1
211.53 K	423.5
215.66 K	431.6
219.74 K	437.6
220 K	438.6
223.82 K	445.1
227.89 K	452.3
230 K	456.1
231.96 K	459.5
236.04 K	466.9
240 K	473.7
240.12 K	474.5
244.2 K	481.2
248.27 K	487.4
250 K	491.2
252.34 K	495.1
256.41 K	502.6
260 K	508.6
260.47 K	509.7
264.53 K	516.2
268.59 K	523.3
270 K	525.9
272.64 K	530.3
273.15 K	531.3
276.68 K	537.3
280 K	543.1
280.75 K	545.1
284.78 K	550.6
288.79 K	558.6
290 K	560.3
292.8 K	565.2
296.8 K	571.5
298.15 K	574.4
300 K	577.6
300.78 K	578.9
306.79 K	590
310 K	595.2
312.24 K	599.4
320 K	613.1
320.03 K	612.7
326.53 K	625.5
330 K	631.7
332.98 K	637.3
333 K	637.5
